In patent US20250312497A1, “METHOD OF TREATING PROSTATE CANCER” (Novartis AG, priority 2022, published 2025):
Several values for one entry are separate records, joined by “and”; a condition that tells them apart may be missing. Identical values can stand only once.

System: PSMA-positive mCRPC participants
Assay: PSMAfore phase III: adverse events, serious adverse events, safety topics and deaths (safety set)
Type: in vivo, human
Conditions: DCO 2 Oct 2022
[1] = most common AEs (>10% in either arm)

## O=C([O-])CN1CCN(CC(=O)[O-])CCN(CC(=O)NCC2CCC(C(=O)N[C@@H](Cc3ccc4ccccc4c3)C(=O)NCCCC[C@H](NC(=O)N[C@@H](CCC(=O)O)C(=O)O)C(=O)O)CC2)CCN(CC(=O)[O-])CC1.[177Lu+3] (stereo partly shown) [[177Lu]Lu-PSMA-617, lutetium (177Lu) vipivotide tetraxetan]
  Fatal serious AEs: Fatal serious AEs: 1.8% in [177Lu]Lu-PSMA-
  death during the study due to study indication: 4.4%
  most frequent serious adverse event: urinary tract infection: 1.8%
  on-treatment deaths due to Study indication: 0%
  subjects who received at least one dose and died during the study: 18 (8%) n (%)
ARDT prior to crossover
  AEs leading to discontinuation, Treatment-related: 1.8%
  Grade≥3 AEs, Treatment-related: 6.6%
  Serious AEs, Treatment-related: 2.2%
[1]
  Anaemia: 16.8%
  Arthralgia: 11.5%
  Asthenia: 23.9%
  Back pain: 7.1%
  COVID-19: 11.1%
  Constipation: 15.5%
  Decreased appetite: 12.8%
  Diarrhoea: 12.4%
  Dry mouth: 44.7%
  Fatigue: 18.1%
  Nausea: 25.2%
Safety set
  On-treatment deaths: Number of subjects who died: 4 (1.8%) n (%) and 4 (1.8) n (%)
  On-treatment deaths: Other: 4 (1.8) n (%)
  On-treatment deaths: Study indication: 0 n (%)
Safety set, All Grades
  AE preferred term: Anaemia: 38 (16.8) n (%)
  AE preferred term: Arthralgia: 26 (11.5) n (%)
  AE preferred term: Asthenia: 54 (23.9) n (%)
  AE preferred term: Back pain: 16 (7.1) n (%)
  AE preferred term: COVID-19: 25 (11.1) n (%)
  AE preferred term: Constipation: 35 (15.5) n (%)
  AE preferred term: Decreased appetite: 29 (12.8) n (%)
  AE preferred term: Diarrhoea: 28 (12.4) n (%)
  AE preferred term: Dry mouth: 101 (44.7) n (%)
  AE preferred term: Fatigue: 41 (18.1) n (%)
  AE preferred term: Nausea: 57 (25.2) n (%)
  Adverse events (subjects with at least one event): 202 (89.4) n (%)
  Adverse events leading to discontinuation: 9 (4.0) n (%)
  Adverse events leading to discontinuation, Treatment-related: 4 (1.8) n (%)
  Adverse events leading to dose adjustment: 5 (2.2) n (%)
  Adverse events leading to dose interruption: 16 (7.1) n (%)
  Adverse events requiring additional therapy: 121 (53.5) n (%)
  Adverse events, Treatment-related: 170 (75.2) n (%)
  Fatal serious adverse events: 4 (1.8) n (%)
  Fatal serious adverse events, Treatment-related: 0 n (%)
  Safety topic: Dry eye: 6 (2.7) n (%)
  Safety topic: Dry mouth: 101 (44.7) n (%)
  Safety topic: Fractures: 3 (1.3) n (%)
  Safety topic: Hepatotoxicity: 20 (8.8) n (%)
  Safety topic: Intracranial haemorrhage: 2 (0.9) n (%)
  Safety topic: Myelosuppression: 56 (24.8) n (%)
  Safety topic: QT prolongation: 2 (0.9) n (%)
  Safety topic: Radiotoxicity including inadvertent exposure: 0 n (%)
  Safety topic: Renal toxicity: 11 (4.9) n (%)
  Safety topic: Second primary malignancies: 3 (1.3) n (%)
  Serious AE preferred term: Anaemia: 2 (0.9) n (%)
  Serious AE preferred term: Haematuria: 0 n (%)
  Serious AE preferred term: Pain: 1 (0.4) n (%)
  Serious AE preferred term: Spinal cord compression: 2 (0.9) n (%)
  Serious AE preferred term: Urinary retention: 1 (0.4) n (%)
  Serious AE preferred term: Urinary tract infection: 4 (1.8) n (%)
  Serious adverse events (subjects with at least one event): 35 (15.5) n (%)
  Serious adverse events, Treatment-related: 5 (2.2) n (%)
Safety set, Grade >=3
  AE preferred term: Anaemia: 10 (4.4) n (%)
  AE preferred term: Arthralgia: 0 n (%)
  AE preferred term: Asthenia: 1 (0.4) n (%)
  AE preferred term: Back pain: 2 (0.9) n (%)
  AE preferred term: COVID-19: 1 (0.4) n (%)
  AE preferred term: Constipation: 1 (0.4) n (%)
  AE preferred term: Decreased appetite: 0 n (%)
  AE preferred term: Diarrhoea: 0 n (%)
  AE preferred term: Dry mouth: 1 (0.4) n (%)
  AE preferred term: Fatigue: 0 n (%)
  AE preferred term: Nausea: 0 n (%)
  Adverse events (subjects with at least one event): 53 (23.5) n (%)
  Adverse events leading to discontinuation: 6 (2.7) n (%)
  Adverse events leading to discontinuation, Treatment-related: 3 (1.3) n (%)
  Adverse events leading to dose adjustment: 1 (0.4) n (%)
  Adverse events leading to dose interruption: 9 (4.0) n (%)
  Adverse events requiring additional therapy: 34 (15.0) n (%)
  Adverse events, Treatment-related: 15 (6.6) n (%)
  Fatal serious adverse events: 4 (1.8) n (%)
  Fatal serious adverse events, Treatment-related: 0 n (%)
  Safety topic: Dry eye: 0 n (%)
  Safety topic: Dry mouth: 1 (0.4) n (%)
  Safety topic: Fractures: 1 (0.4) n (%)
  Safety topic: Hepatotoxicity: 8 (3.5) n (%)
  Safety topic: Intracranial haemorrhage: 1 (0.4) n (%)
  Safety topic: Myelosuppression: 19 (8.4) n (%)
  Safety topic: QT prolongation: 1 (0.4) n (%)
  Safety topic: Radiotoxicity including inadvertent exposure: 0 n (%)
  Safety topic: Renal toxicity: 2 (0.9) n (%)
  Safety topic: Second primary malignancies: 1 (0.4) n (%)
  Serious AE preferred term: Anaemia: 1 (0.4) n (%)
  Serious AE preferred term: Haematuria: 0 n (%)
  Serious AE preferred term: Pain: 1 (0.4) n (%)
  Serious AE preferred term: Spinal cord compression: 2 (0.9) n (%)
  Serious AE preferred term: Urinary retention: 1 (0.4) n (%)
  Serious AE preferred term: Urinary tract infection: 3 (1.3) n (%)
  Serious adverse events (subjects with at least one event): 30 (13.3) n (%)
  Serious adverse events, Treatment-related: 4 (1.8) n (%)
Safety set, preferred term
  On-treatment deaths: COVID-19 pneumonia: 1 (0.4) n (%)
  On-treatment deaths: Cardiac arrest: 1 (0.4) n (%)
